26 compounds from the supplement of paper PMC6965134 can be followed below.

Structures are written as SMILES. ± gives the standard deviation of the averaged measurements.

A short description of the data set: TIMS collisional cross section (CCS, N2) of the lipid ion; higher = larger ion cross section. To be noted: ionization mode: positive, one isomer drawn.

In the case of `CCCCC/C=C\C/C=C\C/C=C\C/C=C\CCCC(=O)OC[C@@H](O)COP(=O)([O-])OCC[N+](C)(C)C` [LPC 20:4] (ion (formula + adduct): [C28H50NO7P+H] 1+), the “TIMS collisional cross section” value runs as follows: (sample type: Liver) 230 Å²; (sample type: plasma) 231.65 ± 3.2 Å².

For `CCCCC/C=C\C/C=C\C/C=C\C/C=C\CCCC(=O)O[C@H](CO)COP(=O)([O-])OCC[N+](C)(C)C` [LPC 20:4] (ion (formula + adduct): [C28H50NO7P+H] 1+), the “TIMS collisional cross section” value (sample type: plasma) was 231.1 Å². For the compound `CC/C=C\C/C=C\C/C=C\C/C=C\C/C=C\CCCC(=O)OC[C@@H](O)COP(=O)([O-])OCC[N+](C)(C)C` [LPC 20:5_0:0] (ion (formula + adduct): [C28H48NO7P+H] 1+), the “TIMS collisional cross section” value (sample type: plasma) is 226.4 Å². Turning to `CCCCCCCCCC/C=C\CCCCCCCCCC(=O)OC[C@@H](O)COP(=O)([O-])OCC[N+](C)(C)C` [LPC 22:1] (ion (formula + adduct): [C30H60NO7P+H] 1+), the “TIMS collisional cross section” value was 247.3 Å² (sample type: HeLa) and 247.6 Å² (sample type: plasma). `CCCCCCCCCC/C=C\CCCCCCCCCC(=O)OC[C@@H](O)COP(=O)([O-])OCC[N+](C)(C)C` [LPC 22:1_0:0] (ion (formula + adduct): [C30H60NO7P+H] 1+): the “TIMS collisional cross section” value came to 246.1 Å² (sample type: HeLa) and 246.6 Å² (sample type: plasma). On to `CCCCC/C=C\C/C=C\CCCCCCCCCCCC(=O)OC[C@@H](O)COP(=O)([O-])OCC[N+](C)(C)C` [LPC 22:2] (ion (formula + adduct): [C30H58NO7P+H] 1+), for which the “TIMS collisional cross section” value (sample type: plasma) came to 242 Å². Take `CCCCC/C=C\C/C=C\C/C=C\C/C=C\CCCCCC(=O)OC[C@@H](O)COP(=O)([O-])OCC[N+](C)(C)C` [LPC 22:4] (ion (formula + adduct): [C30H54NO7P+H] 1+): where the note is “sample type: plasma”, the “TIMS collisional cross section” value was 237.55 ± 1.2 Å².

As to `CCCCC/C=C\C/C=C\C/C=C\C/C=C\C/C=C\CCC(=O)OC[C@@H](O)COP(=O)([O-])OCC[N+](C)(C)C` [LPC 22:5] (ion (formula + adduct): [C30H52NO7P+H] 1+), the “TIMS collisional cross section” value (sample type: HeLa) came to 232.9 Å² and the “TIMS collisional cross section” value (sample type: plasma) stood at 233.2 Å². `CC/C=C\C/C=C\C/C=C\C/C=C\C/C=C\C/C=C\CCC(=O)OC[C@@H](O)COP(=O)([O-])OCC[N+](C)(C)C` [LPC 22:6] (ion (formula + adduct): [C30H50NO7P+H] 1+): the “TIMS collisional cross section” value stood at 232.4 Å² (sample type: HeLa), 234.5 Å² (sample type: Liver) and 233.5 ± 1.3 Å² (sample type: plasma). Take `CC/C=C\C/C=C\C/C=C\C/C=C\C/C=C\C/C=C\CCC(=O)OC[C@@H](O)COP(=O)([O-])OCC[N+](C)(C)C` [LPC 22:6_0:0] (ion (formula + adduct): [C30H50NO7P+H] 1+): the “TIMS collisional cross section” value (sample type: plasma) was found to be 233.1 Å². Take `CCCCCCCCCCCCCCCCCCCCCCCC(=O)OC[C@@H](O)COP(=O)([O-])OCC[N+](C)(C)C` [LPC 24:0] (ion (formula + adduct): [C32H66NO7P+H] 1+): the “TIMS collisional cross section” value is 258.5 Å² (sample type: HeLa), 258.9 Å² (sample type: Liver) and 259.1 Å² (sample type: plasma).

Consider `CCCCCCCC/C=C\CCCCCCCCCCCCCC(=O)OC[C@@H](O)COP(=O)([O-])OCC[N+](C)(C)C` [LPC 24:1] (ion (formula + adduct): [C32H64NO7P+H] 1+), for which the “TIMS collisional cross section” value (sample type: HeLa) is listed as 253.5 Å², the “TIMS collisional cross section” value (sample type: Liver) is on record as 253.85 ± 0.49 Å² and the “TIMS collisional cross section” value (sample type: plasma) is recorded as 253.3 Å². For `CCCCCCCCCCCCCCCCOC[C@@H](O)COP(=O)([O-])OCC[N+](C)(C)C` [LPC O- 16:0] (ion (formula + adduct): [C24H52NO6P+H] 1+), the “TIMS collisional cross section” value turned out to be 230.5 Å² (sample type: HeLa) and 230.6 Å² (sample type: plasma). The corresponding values for `CCCC/C=C\CCCCCCCCCCOC[C@@H](O)COP(=O)([O-])OCC[N+](C)(C)C` [LPC O- 16:1] (ion (formula + adduct): [C24H50NO6P+H] 1+) are 225.4 Å² and 224.8 Å². Take `CCCCCCCCCCCCCCCCCCOC[C@@H](O)COP(=O)([O-])OCC[N+](C)(C)C` [LPC O- 18:0] (ion (formula + adduct): [C26H56NO6P+H] 1+): the “TIMS collisional cross section” value came to 238.4 Å² (sample type: HeLa) and 238.2 Å² (sample type: Liver). Turning to `CCCCCC/C=C\CCCCCCCCCCOC[C@@H](O)COP(=O)([O-])OCC[N+](C)(C)C` [LPC O- 18:1] (ion (formula + adduct): [C26H54NO6P+H] 1+), the “TIMS collisional cross section” value reads like this: (sample type: HeLa) 233.6 Å²; (sample type: plasma) 233.67 ± 0.64 Å².

For `CCCCCCCCCCCCCCCCCCCCOC[C@@H](O)COP(=O)([O-])OCC[N+](C)(C)C` [LPC O- 20:0] (ion (formula + adduct): [C28H60NO6P+H] 1+), the “TIMS collisional cross section” value (sample type: plasma) is 245.9 Å². With `CCCCCCCCCCCCCCCC(=O)O[C@H](CO)COP(=O)(O)OCCN` [LPE 16:0] (ion (formula + adduct): [C21H44NO7P+H] 1+), under “sample type: Liver”, the “TIMS collisional cross section” value amounted to 214.5 Å². Take `CCCCCCCCCCCCCCCC(=O)OC[C@@H](O)COP(=O)(O)OCCN` [LPE 16:0] (ion (formula + adduct): [C21H44NO7P+H] 1+): the “TIMS collisional cross section” value is on record as 214.5 Å² (sample type: HeLa), 215.9 ± 2.1 Å² (sample type: Liver) and 215.7 ± 2.5 Å² (sample type: plasma). Regarding `CCCCCCCCCCCCCCCC(=O)OC[C@@H](O)COP(=O)(O)OCCN` [LPE 16:0_0:0] (ion (formula + adduct): [C21H44NO7P+H] 1+), the “TIMS collisional cross section” value (sample type: HeLa) is given as 217.4 Å².

For the compound `CCCCCC/C=C\CCCCCCCC(=O)OC[C@@H](O)COP(=O)(O)OCCN` [LPE 16:1] (ion (formula + adduct): [C21H42NO7P+H] 1+), the “TIMS collisional cross section” value worked out at 207.8 Å² (sample type: Liver) and 207.4 Å² (sample type: plasma).

Regarding `CCCCCC/C=C\CCCCCCCC(=O)OC[C@@H](O)COP(=O)(O)OCCN` [LPE 16:1_0:0] (ion (formula + adduct): [C21H42NO7P+H] 1+), the “TIMS collisional cross section” value (sample type: HeLa) worked out at 210.1 Å². Regarding `CCCCCCCCCCCCCCCCCC(=O)O[C@H](CO)COP(=O)(O)OCCN` [LPE 18:0] (ion (formula + adduct): [C23H48NO7P+H] 1+), the “TIMS collisional cross section” value was 221.7 Å² (sample type: HeLa) and 222 Å² (sample type: Liver). Regarding `CCCCCCCCCCCCCCCCCC(=O)OC[C@@H](O)COP(=O)(O)OCCN` [LPE 18:0] (ion (formula + adduct): [C23H48NO7P+H] 1+), the “TIMS collisional cross section” value (sample type: plasma) is 221.8 Å².

In the case of `CCCCCC/C=C\CCCCCCCCCC(=O)O[C@H](CO)COP(=O)(O)OCCN` [LPE 18:1] (ion (formula + adduct): [C23H46NO7P+H] 1+), the “TIMS collisional cross section” value (sample type: HeLa) is reported as 218.1 Å² and the “TIMS collisional cross section” value (sample type: Liver) is 215.4 Å².

Consider `CCCCCCCC/C=C\CCCCCCCC(=O)OC[C@@H](O)COP(=O)(O)OCCN` [LPE 18:1] (ion (formula + adduct): [C23H46NO7P+H] 1+), for which the “TIMS collisional cross section” value runs as follows: (sample type: HeLa) 216.4 Å²; (sample type: Liver) 217 ± 2 Å²; (sample type: plasma) 216.93 ± 1.3 Å².
